Assay results: patent US20030119800A1, “Bone anabolic compounds and methods of use” (priority 2001, published 2003)

Experiments:
[1] = system: osteoclasts generated in bone marrow cultures from adult female or male mice; assay: Osteoclast apoptosis in bone marrow derived cultures; type: cell-based, mouse
Protocol: (§1) Osteoblastic cells (A) were isolated from calvaria of neonatal female or male mice, the sex of which was determined by Southern blot analysis of liver DNA with a Y chromosome specific cDNA probe; and cultured as previously described. The ability of the indicated steroids to protect against etoposide induced apoptosis was determined as in FIG. 1D, lower panel. (B) Osteoclasts were generated in bone marrow cultures from adult female or male mice, and then treated with vehicle or the indicated concentrations of steroids for 24 hours at which point the number of cells undergoing apoptosis was determined. Representative results from 1 of 4 females and 1 of 4 males examined are shown. Each point represents the mean of triplicate determinations±SD. *p<0.05 vs. vehicle, by ANOVA. (C & D) Eight-month old Swiss Webster mice (n=8-10 per group) were sham-operated, ovariectomized (OVX) or orchidectomized (ORX). […] BMD and wet uterine or seminal vesicle weight was determined six weeks later. Bars indicate means±SD. *p<0.05 vs OVX or ORX.
FIG. 8 illustrates the pro-apoptotic effect of sex steroids on osteoclasts requires Src/ERK signaling. […] After 24 hours, the percentage of apoptotic osteoclasts was determined as in FIG. 7.
Quantification of apoptotic cells in vitro: Apoptosis of HeLa cells or calvaria-derived osteoblastic cells was quantified by direct visualization of changes in nuclear morphology or by trypan blue staining, respectively, as previously described (Kousteni et al, 2001). Apoptosis of osteoclasts, derived from bone marrow cells cultured with 30 ng/ml M-CSF and 30 ng/ml soluble RANK ligand, was quantified by measuring caspase 3 activity as previously described (Weinstein et al, 2002).

[2] = system: ER (lamb uterus cytosol, human ERα, human ERβ); assay: Relative binding affinity by competition with 3H E2 (FIG. 10)
Protocol: The proteins were absorbed to hydroxylapatite (HAP) and the free ligand removed by washing (Carlson et al, 1997). Results are expressed as percent specific binding. […] Symbols indicate means±SD of two separate experiments in which each point was determined in duplicate.
Statistical analysis: ANOVA was used to detect treatment effects. Specifically, in FIGS. 1-6 & 8, Dunnett's test (Kuehl et al, 2000) was used to detect differences between various treatments as compared to the vehicle control group. To detect differences in the efficacy of the various compounds shown in FIGS. 7A & B, the dose response curves were compared using tests for linear trend (Kuehl, 2002). Bonferroni's method was used to perform all pairwise comparisons of treatment groups in FIGS. 7E & F, FIGS. 11A, B, C, FIG. 12A, FIG. 13, FIGS. 14A and B and FIG. 9. Because the normality assumption was not satisfied for the data in FIGS. 3C & D and FIG. 12C, Wilcoxon's rank sum test (Steel et al, 1997) was used to perform all pairwise comparisons of treatment groups using a Bonferroni correction. In FIG. 14D, a two-way ANOVA was used to detect treatment and dose effects and tests for linear trend were subsequently employed to determine significant effects of each compound. In FIG. 10, logistic regression was used to estimate EC50, which was then used to determine the relative binding affinity. […]

[3] = system: OVX or ORX Swiss Webster mice; assay: Gonadectomized (OVX or ORX) Swiss Webster mice with 60-day slow release pellets: bone and reproductive tissues; type: in vivo, mouse
Protocol: as §1
FIG. 9 illustrates the equivalence of the skeletal actions of estrogens and androgens in female and male mice. […] Six weeks later, osteoblast apoptosis in histologic sections of the vertebrae (A), osteoblastogenesis and osteoclastogenesis in ex vivo bone marrow cultures (B and C), and serum osteocalcin concentration (D) were determined. Bars indicate means±SD, *p<0.05 vs OVX or ORX.
Global, spine and hindlimb BMD was determined at both 4 and 6 weeks later in the experiment with the 8 month old females, and at 6 weeks only in the experiments with the 6 month old females and males (A, B and C). The 6 week BMD data in females (B) represent pooled values from the two experiments with the 6- and the 8-month old mice.
Longitudinal undecalcified sections of the distal femur are shown in (B). […] Osteoblast apoptosis in sections of L1-L4 vertebrae from females (8 month old) and males (C).
Histomorphometric analysis of L1-L4 vertebrae from 6 month old females (A-F) and pooled serum osteocalcin levels from the 6 and 8 month old females (G). […] The ANGELS compounds described herein are useful for maintaining and/or increasing bone mass and/or strength and/or density in mammals. Mammals, preferably humans, in need of such compounds can include those suffering from such conditions as female osteoporosis (post menopausal), male osteoporosis, glucocorticoid-induced osteoporosis, immobilization and aging-related osteoporosis, idiopathic or juvenile osteoporosis, transplantation-related osteoporosis, and alveolar ridge bone loss. In addition, the compounds described herein are particularly useful for administration to subjects that are unable or unwilling to tolerate therapies that have a masculinizing or feminizing effect. For example, subjects such as breast cancer patients (especially those with bone metastasis on gonadotropin […] hormone (GnRH) or ovariectomized), prostrate cancer patients (especially those on GnRH/castration therapy), and myeloma/lymphoma patients are frequently poor candidates for treatment with estrogen or androgens because of the risk of a recurrence of the underlying condition, e.g., cancer.
Wet uterine (A) or seminal vesicle weight (B) of female and male mice described in FIG. 11. […] Note the following morphologic differences in the uteri of OVX- and OVX+4-estren-3α,17β-diol-treated mice as compared to uteri from sham-operated and OVX+E2-treated mice: thin and atrophic columnar epithelium; compact stroma; decreased number of glands; decreased nucleus to cytoplasmic ratio in the columnar epithelial, endometrial stroma, and myometrial cells; and absence of mitotic activity. (D) Proliferation of MCF-7 cells was determined by ^3H-thymidine uptake.
For these studies, mature Swiss Webster mice (8 month old), n=8-10 per group, were sham-operated or gonadectomized (GNDX). […]

[4] = histomorphometry of lumbar vertebrae L1-L4, OVX females

## C[C@]12CC[C@H]3[C@@H](CCC4=C[C@H](O)CC[C@@H]43)[C@@H]1CC[C@@H]2O [4-estren-3α,17β-diol]
[1]
  difference in potency in osteoclasts from females and males: no difference
[2]
  binding affinity for the ER compared to E2: lower binding affinity
[3]; 7.6 mg per 60 day slow release pellet
  body weight: no effect
[3]; 4-estren-3α,17β-diol 7.6 mg pellet, E2 pharmacologic dose 100× the replacement dose
  effect on the bone marrow cavity: no adverse effects
[3]; 4-estren-3α,17β-diol at 300× ERT versus vehicle or E2 1× ERT, E2 at 100× ERT
  longitudinal undecalcified sections of the distal femur: increased cortical and trabecular width
[3]; L5, ORX
  bone compression strength in the vertebrae, male mice: equally effective
[3]; L5, compared to mice receiving E2
  bone compression strength in the vertebrae, female mice: greater than in mice receiving E2
[3]; ORX males, 7.6 mg pellet
  BMD in ORX mice compared to DHT replacement: at least as effective if not superior
[3]; ORX males, 6 weeks
  BMD values in the spine versus the untreated ORX group: significantly higher
[3]; ORX males, pellets E2 0.025 mg or 4-estren-3α,17β-diol 7.6 mg
  seminal vesicle weight: no effect
[3]; OVX females
  histologic analysis of the uterus: lack of an effect
[3]; OVX females, pellets DHT 10 mg or 4-estren-3α,17β-diol 7.6 mg
  wet uterine weight: no effect
[3]; OVX mice, compared to OVX+E2 replacement and to estrogen replete sham controls
  BMD change in the hindlimb: greater BMD change
[3]; OVX, 7.6 mg pellet versus E2 replacement
  global and spinal BMD in females: as effective, if not superior to estradiol
[3]; as compared to the OVX group
  osteoclast number: suppressed
  rate of bone formation: suppressed
[3]; gonadectomized females or males
  prevalence of osteoblast and osteocyte apoptosis in the lumbar vertebrae: prevented the increased prevalence
[3]; [4]
  cortical width, greater compared to OVX mice treated with E2: 27.8%
  number of osteoblasts on the trabeculae, greater than in the E2-treated group: 319%
  osteoid perimeter, increase versus E2-treated group: 270%
  trabecular width, greater compared to OVX mice treated with E2: 33.9%
[3]; two separate experiments, compared to OVX+E2 and to estrogen replete sham controls
  serum osteocalcin: significantly higher
